From patent publication US12403132B2, “Methods of treating bone marrow failure syndromes and compositions for use in the same” (The Board of Trustees of the Leland Stanford Junior …, priority 2020, dated 2025)

System: miR-26a and other miRNAs (let-7, miR-30, miR-181, miR-199, miR-144)
Assay: miRNA expression by qRT-PCR in differentiating human CD34+ progenitors
Type: cell-based
Procedure: FIG. 14. Metformin-mediated upregulation of miR-26a in human progenitors suppresses NLK expression. (Panel A) Human CD34+ (upper) and murine Lin-Kit+ (lower) progenitors were differentiated for 8 days in the presence or absence of metformin and the levels of indicated miRNAs were assessed by qRT-PCR. (Panel B) K562 cells stably expressing the luciferase gene coupled to the NLK 3′UTR were mock transfected, transfected with indicated miRNA mimetics, or treated with metformin, and cultured in the presence or absence of metformin for 72 hrs. After lysis, luciferase activity was determined and endogenous NLK and GAPDH protein expression was analyzed by Western blot. (Panel C) K562 cells were mock transfected, or transfected with either miR-34 or miR-26 sponges, prior to being left untreated or treated with metformin for 72 hrs. Lysed cells were subjected to luciferase assay and western blotting to examine NLK and GAPDH protein expression. […] Statistics: two-tailed Student's t test, significant *P<0.05
FIG. 15. MiR-26a mimetic substitutes for metformin in improving erythropoiesis in RPS19-insufficiency. (Panel A) Human CD34+ cells were transduced with shRNA against a control (shLuc) or RPS19 (shRPS19) and transfected with a miR-26a mimetic or a mock control. After differentiation in the absence or presence of metformin for 12 days, cells were counted and the percentage of CD235+ erythroblasts determined by flow cytometry. The calculated CD235+ population of each treatment group is represented as a percentage of the untreated control group (upper). In parallel, qRT-PCR was performed to determine mRNA expression of NLK (middle) and miR-26a (lower). (Panel B) Lin-Kit+ progenitors for RPL11+/+ and RPL+/lox mice were mock transfected or transfected with miR-26a mimetic and differentiated for 8 days. Cells were subjected to counting and the percentage of Ter119+ erythroblasts determined (upper) in conjunction with qRT-PCR examining NLK (middle) and miR-26a (lower) mRNA expression. […] Statistics: two-tailed Student's t test, significant *P<0.05
MessengerRNA was quantified as described (5). MicroRNA was quantified using TaqMan® Small RNA Assays (Applied Biosystems) as per manufacturer's directions and normalized to snoRNA.

Structure (SMILES): CN(C)C(=N)N=C(N)N [metformin]
- miR-26a level (RPS19-insufficiency): 2.5 fold
- miR-26a level (control): 2.4 fold
- upregulation of miR-26a (human CD34+ progenitors in erythroid media, metformin, 8 days): 2.4 fold
- expression of other miRNA species (let-7, miR-30, miR-181, miR-199, miR-144) (human CD34+ progenitors, metformin): did not alter
